# Data from patent US4243408A, “Herbicidal N-triazolylmethyl-substituted alpha-haloacetanilide” (Chevron Research Company, priority 1978, dated 1981).
# System: Pigweed (Amaranthus retroflexus)
# Experiment: Post-Emergent Test, herbicidal effectiveness
# Assay type: in vivo
# Details: post-emergence, 504 h, 33 micrograms per cm^2, 3 weeks, 0-to-100 scale, read-out: Herbicidal Effectiveness, % Control Post, P
row,SMILES,"pest or weed control at 5000 µg/mL, 33 µg/cm2 [%]"
1,CSc1nnc(CNc2c(C)cccc2C)n1C [Compound 14A],0
2,Cc1nnc(CCN(C(=O)CCl)c2c(C)cccc2C)[nH]1 [Compound 10B],0
3,CSc1nnc(CN(C(=O)CCl)c2c(C)cccc2C)n1C [Compound 14B],0
4,CCc1cccc(C)c1NCc1nnc(SC)n1C [Compound 21A],0
5,"Cc1nnc(CN(C(=O)CCl)c2c(C)cccc2C)[nH]1 [Compound 2B, N-(5-methyl-1,2,4-triazol-3-ylmethyl)-2,6-dimethyl-alpha-chloroacetanilide]",32
6,CCc1cccc(CC)c1NCc1nnc[nH]1 [Compound 20A],0

# System: Mustard (Brassica arvensis)
# Experiment: Post-Emergent Test, herbicidal effectiveness
# Assay type: in vivo
# Details: post-emergence, 504 h, 33 micrograms per cm^2, 3 weeks, 0-to-100 scale
row,SMILES,"pest or weed control at 5000 µg/mL, 33 µg/cm2 [%]"
1,CSc1nnc(CNc2c(C)cccc2C)n1C [Compound 14A],0
2,Cc1nnc(CCN(C(=O)CCl)c2c(C)cccc2C)[nH]1 [Compound 10B],35
3,CSc1nnc(CN(C(=O)CCl)c2c(C)cccc2C)n1C [Compound 14B],0
4,CCc1cccc(C)c1NCc1nnc(SC)n1C [Compound 21A],0
5,"Cc1nnc(CN(C(=O)CCl)c2c(C)cccc2C)[nH]1 [Compound 2B, N-(5-methyl-1,2,4-triazol-3-ylmethyl)-2,6-dimethyl-alpha-chloroacetanilide]",25
6,CCc1cccc(CC)c1NCc1nnc[nH]1 [Compound 20A],0

# System: Wild Oats (Avena fatua)
# Experiment: Post-Emergent Test, herbicidal effectiveness
# Assay type: in vivo
# Details: post-emergence, 504 h, 33 micrograms per cm^2, 3 weeks, 0-to-100 scale, read-out: Herbicidal Effectiveness, % Control Post, O
row,SMILES,"pest or weed control at 5000 µg/mL, 33 µg/cm2 [%]"
1,CSc1nnc(CNc2c(C)cccc2C)n1C [Compound 14A],0
2,Cc1nnc(CCN(C(=O)CCl)c2c(C)cccc2C)[nH]1 [Compound 10B],25
3,CSc1nnc(CN(C(=O)CCl)c2c(C)cccc2C)n1C [Compound 14B],0
4,CCc1cccc(C)c1NCc1nnc(SC)n1C [Compound 21A],0
5,"Cc1nnc(CN(C(=O)CCl)c2c(C)cccc2C)[nH]1 [Compound 2B, N-(5-methyl-1,2,4-triazol-3-ylmethyl)-2,6-dimethyl-alpha-chloroacetanilide]",30
6,CCc1cccc(CC)c1NCc1nnc[nH]1 [Compound 20A],0

# System: Crabgrass (Digitaria sanguinalis)
# Experiment: Post-Emergent Test, herbicidal effectiveness
# Assay type: in vivo
# Details: post-emergence, 504 h, 33 micrograms per cm^2, 3 weeks, 0-to-100 scale, read-out: Herbicidal Effectiveness, % Control Post, C
row,SMILES,"pest or weed control at 5000 µg/mL, 33 µg/cm2 [%]"
1,CSc1nnc(CNc2c(C)cccc2C)n1C [Compound 14A],0
2,Cc1nnc(CCN(C(=O)CCl)c2c(C)cccc2C)[nH]1 [Compound 10B],40
3,CSc1nnc(CN(C(=O)CCl)c2c(C)cccc2C)n1C [Compound 14B],0
4,CCc1cccc(C)c1NCc1nnc(SC)n1C [Compound 21A],0
5,"Cc1nnc(CN(C(=O)CCl)c2c(C)cccc2C)[nH]1 [Compound 2B, N-(5-methyl-1,2,4-triazol-3-ylmethyl)-2,6-dimethyl-alpha-chloroacetanilide]",20
6,CCc1cccc(CC)c1NCc1nnc[nH]1 [Compound 20A],0

# System: Watergrass (Echinochloa)
# Experiment: Post-Emergent Test, herbicidal effectiveness
# Assay type: in vivo
# Details: post-emergence, 504 h, 33 micrograms per cm^2, 3 weeks, 0-to-100 scale, read-out: Herbicidal Effectiveness, % Control Post, W
row,SMILES,"pest or weed control at 5000 µg/mL, 33 µg/cm2 [%]"
1,CSc1nnc(CNc2c(C)cccc2C)n1C [Compound 14A],0
2,Cc1nnc(CCN(C(=O)CCl)c2c(C)cccc2C)[nH]1 [Compound 10B],55
3,CSc1nnc(CN(C(=O)CCl)c2c(C)cccc2C)n1C [Compound 14B],0
4,CCc1cccc(C)c1NCc1nnc(SC)n1C [Compound 21A],0
5,"Cc1nnc(CN(C(=O)CCl)c2c(C)cccc2C)[nH]1 [Compound 2B, N-(5-methyl-1,2,4-triazol-3-ylmethyl)-2,6-dimethyl-alpha-chloroacetanilide]",75
6,CCc1cccc(CC)c1NCc1nnc[nH]1 [Compound 20A],0

# System: Lambsquarter (Chenopodium album)
# Experiment: Post-Emergent Test, herbicidal effectiveness
# Assay type: in vivo
# Details: post-emergence, 504 h, 33 micrograms per cm^2, 3 weeks, 0-to-100 scale, read-out: Herbicidal Effectiveness, % Control Post, L
row,SMILES,"pest or weed control at 5000 µg/mL, 33 µg/cm2 [%]"
1,CSc1nnc(CNc2c(C)cccc2C)n1C [Compound 14A],0
2,Cc1nnc(CCN(C(=O)CCl)c2c(C)cccc2C)[nH]1 [Compound 10B],25
3,CSc1nnc(CN(C(=O)CCl)c2c(C)cccc2C)n1C [Compound 14B],0
4,CCc1cccc(C)c1NCc1nnc(SC)n1C [Compound 21A],0
5,"Cc1nnc(CN(C(=O)CCl)c2c(C)cccc2C)[nH]1 [Compound 2B, N-(5-methyl-1,2,4-triazol-3-ylmethyl)-2,6-dimethyl-alpha-chloroacetanilide]",50
6,CCc1cccc(CC)c1NCc1nnc[nH]1 [Compound 20A],0

# System: Pigweed (Amaranthus retroflexus)
# Experiment: Pre-Emergent Test, herbicidal effectiveness
# Assay type: in vivo
# Details: pre-emergence, 504 h, 33 micrograms per cm^2, 3 weeks, 0-to-100 scale, read-out: Herbicidal Effectiveness, % Control Pre, P
# Experimental: (§1) An acetone solution of the test compound was prepared by mixing 750 mg of the compound, 220 mg of a nonionic surfactant and 25 ml of acetone. This solution was added to approximately 125 ml of water containing 156 mg of surfactant.
# (§2) Seeds of the test vegetation were planted in a pot of soil and the test solution was sprayed uniformly onto the soil surface at a dose of 33 micrograms/cm^2. The pot was watered and placed in a greenhouse. […] At the end of this period, the herbicidal effectiveness of the compound was rated based on the physiological observations. A 0-to-100 scale was used, 0 representing no phytotoxicity, 100 representing complete kill.
row,SMILES,pest or weed control at 33 µg/cm2 [%]
1,CSc1nnc(CNc2c(C)cccc2C)n1C [Compound 14A],0
2,Cc1nnc(CCN(C(=O)CCl)c2c(C)cccc2C)[nH]1 [Compound 10B],0
3,CSc1nnc(CN(C(=O)CCl)c2c(C)cccc2C)n1C [Compound 14B],0
4,CCc1cccc(C)c1NCc1nnc(SC)n1C [Compound 21A],0
5,"Cc1nnc(CN(C(=O)CCl)c2c(C)cccc2C)[nH]1 [Compound 2B, N-(5-methyl-1,2,4-triazol-3-ylmethyl)-2,6-dimethyl-alpha-chloroacetanilide]",88
6,CCc1cccc(CC)c1NCc1nnc[nH]1 [Compound 20A],0

# System: Mustard (Brassica arvensis)
# Experiment: Pre-Emergent Test, herbicidal effectiveness
# Assay type: in vivo
# Details: pre-emergence, 504 h, 33 micrograms per cm^2, 3 weeks, 0-to-100 scale
# Experimental: as §1, §2
row,SMILES,pest or weed control at 33 µg/cm2 [%]
1,CSc1nnc(CNc2c(C)cccc2C)n1C [Compound 14A],0
2,Cc1nnc(CCN(C(=O)CCl)c2c(C)cccc2C)[nH]1 [Compound 10B],0
3,CSc1nnc(CN(C(=O)CCl)c2c(C)cccc2C)n1C [Compound 14B],0
4,CCc1cccc(C)c1NCc1nnc(SC)n1C [Compound 21A],0
5,"Cc1nnc(CN(C(=O)CCl)c2c(C)cccc2C)[nH]1 [Compound 2B, N-(5-methyl-1,2,4-triazol-3-ylmethyl)-2,6-dimethyl-alpha-chloroacetanilide]",75
6,CCc1cccc(CC)c1NCc1nnc[nH]1 [Compound 20A],0

# System: Wild Oats (Avena fatua)
# Experiment: Pre-Emergent Test, herbicidal effectiveness
# Assay type: in vivo
# Details: pre-emergence, 504 h, 33 micrograms per cm^2, 3 weeks, 0-to-100 scale, read-out: Herbicidal Effectiveness, % Control Pre, O
# Experimental: as §1, §2
row,SMILES,pest or weed control at 33 µg/cm2 [%]
1,CSc1nnc(CNc2c(C)cccc2C)n1C [Compound 14A],0
2,Cc1nnc(CCN(C(=O)CCl)c2c(C)cccc2C)[nH]1 [Compound 10B],15
3,CSc1nnc(CN(C(=O)CCl)c2c(C)cccc2C)n1C [Compound 14B],10
4,CCc1cccc(C)c1NCc1nnc(SC)n1C [Compound 21A],0
5,"Cc1nnc(CN(C(=O)CCl)c2c(C)cccc2C)[nH]1 [Compound 2B, N-(5-methyl-1,2,4-triazol-3-ylmethyl)-2,6-dimethyl-alpha-chloroacetanilide]",100
6,CCc1cccc(CC)c1NCc1nnc[nH]1 [Compound 20A],0

# System: Crabgrass (Digitaria sanguinalis)
# Experiment: Pre-Emergent Test, herbicidal effectiveness
# Assay type: in vivo
# Details: pre-emergence, 504 h, 33 micrograms per cm^2, 3 weeks, 0-to-100 scale, read-out: Herbicidal Effectiveness, % Control Pre, C
# Experimental: as §1, §2
row,SMILES,pest or weed control at 33 µg/cm2 [%]
1,CSc1nnc(CNc2c(C)cccc2C)n1C [Compound 14A],0
2,Cc1nnc(CCN(C(=O)CCl)c2c(C)cccc2C)[nH]1 [Compound 10B],80
3,CSc1nnc(CN(C(=O)CCl)c2c(C)cccc2C)n1C [Compound 14B],90
4,CCc1cccc(C)c1NCc1nnc(SC)n1C [Compound 21A],0
5,"Cc1nnc(CN(C(=O)CCl)c2c(C)cccc2C)[nH]1 [Compound 2B, N-(5-methyl-1,2,4-triazol-3-ylmethyl)-2,6-dimethyl-alpha-chloroacetanilide]",100
6,CCc1cccc(CC)c1NCc1nnc[nH]1 [Compound 20A],0

# System: Watergrass (Echinochloa)
# Experiment: Pre-Emergent Test, herbicidal effectiveness
# Assay type: in vivo
# Details: pre-emergence, 504 h, 33 micrograms per cm^2, 3 weeks, 0-to-100 scale, read-out: Herbicidal Effectiveness, % Control Pre, W
# Experimental: as §1, §2
row,SMILES,pest or weed control at 33 µg/cm2 [%]
1,CSc1nnc(CNc2c(C)cccc2C)n1C [Compound 14A],0
2,Cc1nnc(CCN(C(=O)CCl)c2c(C)cccc2C)[nH]1 [Compound 10B],95
3,CSc1nnc(CN(C(=O)CCl)c2c(C)cccc2C)n1C [Compound 14B],100
4,CCc1cccc(C)c1NCc1nnc(SC)n1C [Compound 21A],0
5,"Cc1nnc(CN(C(=O)CCl)c2c(C)cccc2C)[nH]1 [Compound 2B, N-(5-methyl-1,2,4-triazol-3-ylmethyl)-2,6-dimethyl-alpha-chloroacetanilide]",100
6,CCc1cccc(CC)c1NCc1nnc[nH]1 [Compound 20A],0

# System: Lambsquarter (Chenopodium album)
# Experiment: Pre-Emergent Test, herbicidal effectiveness
# Assay type: in vivo
# Details: pre-emergence, 504 h, 33 micrograms per cm^2, 3 weeks, 0-to-100 scale, read-out: Herbicidal Effectiveness, % Control Pre, L
# Experimental: as §1, §2
row,SMILES,pest or weed control at 33 µg/cm2 [%]
1,CSc1nnc(CNc2c(C)cccc2C)n1C [Compound 14A],0
2,Cc1nnc(CCN(C(=O)CCl)c2c(C)cccc2C)[nH]1 [Compound 10B],0
3,CSc1nnc(CN(C(=O)CCl)c2c(C)cccc2C)n1C [Compound 14B],0
4,CCc1cccc(C)c1NCc1nnc(SC)n1C [Compound 21A],0
5,"Cc1nnc(CN(C(=O)CCl)c2c(C)cccc2C)[nH]1 [Compound 2B, N-(5-methyl-1,2,4-triazol-3-ylmethyl)-2,6-dimethyl-alpha-chloroacetanilide]",98
6,CCc1cccc(CC)c1NCc1nnc[nH]1 [Compound 20A],0
